pKi: −log10 of the molar value.
Molecular target: T1, BmTy (tyrosinase from Bacillus megaterium) (Priestia megaterium, UniProt B2ZB02)
T1 construct: 6x His-tagged, expressed in E. coli BL21(DE3), Ni-NTA purified
T1 sequence (B2ZB02 1-297): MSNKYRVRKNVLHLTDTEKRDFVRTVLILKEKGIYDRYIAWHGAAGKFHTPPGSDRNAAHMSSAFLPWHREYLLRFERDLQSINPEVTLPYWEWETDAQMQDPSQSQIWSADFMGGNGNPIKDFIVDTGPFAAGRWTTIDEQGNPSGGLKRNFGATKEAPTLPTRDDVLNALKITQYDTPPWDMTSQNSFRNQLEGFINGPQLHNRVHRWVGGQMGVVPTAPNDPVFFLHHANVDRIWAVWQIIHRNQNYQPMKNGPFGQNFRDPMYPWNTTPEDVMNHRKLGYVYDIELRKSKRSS
Test: dopachrome assay at […] nm, initial rates, L-tyrosine as substrate (monophenolase activity)
Type: biochemical
Settings: read-out: KI1

pKi: 4.47
Compound: O=c1c(O)c(-c2ccc(O)c(O)c2)oc2cc(O)cc(O)c12 [QUE, quercetin]
